The values that follow come from patent publication US20220331301A1, “CYSTIC FIBROSIS TRANSMEMBRANE CONDUCTANCE REGULATOR MODULATORS FOR TREATING AUTOSOMAL RESESSIVE POLYCYSTIC KIDNEY DISEASE” (The Johns Hopkins University, priority 2021, published 2022).

In one test the test system is CFTR. Description: CFTR colocalization in bile duct epithelia of Pkhd1^del3-4/del3-4 mice. The format is in vivo. The note with it: 30 mg/kg every other day for 30 days. Here is the method: FIG. 13A and FIG. 13B show CFTR and CK19 colocalization in WT and Pkhd1^del3-4/del3-4 mice bile duct epithelia. […] Merged red and green channels are shown, wherein yellow indicates colocalization; the white square indicates the area of enlargement shown. FIG. 13B summarizes the Pearson's Correlation coefficient R. Bars represent the means±SEM. Samples were incubated with 5 μg/ml primary antibody CFTR (596) and CK19 (Invitrogen #PA5-29548) in blocking buffer for 16 hours at 4° C. Goat anti-rabbit Alexa Fluor 594 and anti-mouse Alexa Flour 488 conjugated secondary antibodies were used at a 1/250 dilution for 1 hour to label the proteins. Scale bar is 10 μm. **P<0.01, ****P<0.0001.
FIG. 14A and FIG. 14B show CFTR and E-Cadherin colocalization in WT and Pkhd1^del3-4/del3-4 mice bile duct epithelia. […] Merged red and green channels are shown, wherein yellow indicates colocalization; the white square indicates the area of enlargement shown. E-Cadherin is a marker of the lateral junctional membrane of epithelial cells (see, e.g., Bruser (2017) Adherens Junctions on the Move-Membrane Trafficking of E-Cadherin. Cold Spring Harb. Perspect. Biol. 9, a029140, incorporated herein by reference). FIG. 14B summarizes the Pearson's Correlation coefficient R in mutant cells. Samples were incubated with 5 μg/ml primary antibody CFTR (596) and eCadherin (R&D #AF748) in blocking buffer for 16 hours at 4° C. Goat anti-mouse Alexa Fluor 594 and anti-goat Alexa Flour 488 conjugated secondary antibodies were used at a 1/250 dilution for 1 hour to label the proteins. Scale bar is 10 μm. As shown by the data, Pkhd1^del3-4/del3-4 cholangiocytes have much greater colocalization of CFTR with the apical/lateral marker compared to WT cells. VX-809 treatment decreases E-cadherin colocalization of CFTR in mutant mice cells. All images were captured with a 63× oil objective. Significance was analyzed using unpaired t test. […]
FIG. 15A and FIG. 15B show CFTR and Na/K ATPase colocalization in WT and Pkhd1^del3-4/del3-4 mice bile duct epithelia. […] Significance was analyzed using unpaired t test. […]

The next test relates to PC1 null mice. The note with it: shown previously, Yanda et al., 2018; cited from earlier work.
Another test has as its system HSP27, 70, 90 and Aha1. Description: Western blot of chaperone expression in cholangiocytes. The format is cell-based, mice. To be noted: Pkhd1del4/del4 cholangiocytes. The protocol:
FIG. 9A, FIG. 9B, FIG. 9C, FIG. 9D and FIG. 9E show chaperone expression is altered Pkhd1del4/del4 cholangiocytes. (FIG. 9A) Representative Western blot images of HSP27, 70, 90 and Aha1 in WT and Pkhd1del4/del4 cholangiocytes treated with VX-809 as described in previous figures. (FIG. 9B, FIG. 9C, FIG. 9D and FIG. 9E) Columns represent averages±standard errors of Hsp 27, Aha1, HSP70 and HSP90 expression. Data were analyzed by non-parametric t-test. n=4 for each treated and control groups. **P. Please note the large decrease in Hsp27 and increases in Aha1, HSP70 and Hsp 90 in Pkhd1del4/del4 cholangiocytes compared to WT.
We have previously shown that CFTR-based correctors rescue ΔF508-CFTR by altering the proteostatic network of ER quality control proteins (HSPs) involved in its degradation. Lopes-Pacheco et al., 2015. […] To continue this line of investigation, we measured the steady-state levels of HSPs in Pkhd1del4/del4 cholangiocytes (FIG. 9). In the mutant cholangiocytes, HSP27 was reduced by half whereas, HSP70 was increased by 8 fold, HSP90 was by 2-fold and Aha1 by 2.5 fold.
(A western blot detects proteins with antibodies after separation by electrophoresis.)

“Also recorded” adds a separate entry of the source.

On to lumacaftor [VX-809], for which, in the test on CFTR, the CFTR-CK19 colocalization result is given as “significantly lowered the colocalization”, the “CFTR-Na/K ATPase colocalization (basolateral membrane)” value was “increased the colocalization with the basolateral membrane; also recorded: significantly increased CFTR-Na/K ATPase colocalization” and the CFTR-eCadherin colocalization result was “significantly lowered the colocalization”. Also, in the test on PC1 null mice, the “cysts in PC1 null mice” value is “can reduce cysts”. Also, in the test with HSP27, 70, 90 and Aha1, the Aha1 level entry was “reduced the levels; also recorded: correction toward WT values”, the HSP70 level result is reported as “reduced the levels; also recorded: correction toward WT values” and the HSP90 level result was “reduced the levels; also recorded: correction toward WT values”.
